This note sets out measurements from patent publication US10174355B2, “Method for glycosylation of ginsenoside using a glycosyltransferase derived from panax ginseng” (KOREA ADVANCED INSTITUTE OF SCIENCE AND TECHNOLOGY, priority 2014, dated 2019).

For one experiment, the system named is PgUGT71A1. Description: In-vitro glycosyltransferase assay of recombinant PgUGT71A1 with ginsenoside substrates and UDP-glucose. Type of experiment: biochemical, Panax ginseng. The following applies: for conversion by PgUGT71A1 (product formed), HPLC / conversion by PgUGT71A1 (product formed), TLC: ginsenoside 5 mM, UDP-glucose 50 mM, 35° C., 12 hours; for conversion by PgUGT71A1 (product formed), HPLC: FIG. 2 bottom; for conversion by PgUGT71A1 (product formed), TLC: FIG. 2 top; for reaction with PgUGT71A1 confirmed by thin-layer chromatography: screen of 9 ginsenosides incubated with recombinant PgUGT71A1 in the presence of UDP-glucose; for conversion by PgUGT71A1 (product formed), TLC / reaction with PgUGT71A1 confirmed by thin-layer chromatography: TLC. As for the experimental part:
A glycosyltransferase assay was conducted in a reaction buffer (10 mM PBS buffer, pH 7) containing the purified PgUGT71A1 (30 μg), a ginsenoside compound (5 mM) and UDP-glucose (50 mM). For this assay, 4 different types of ginsenosides, i.e., protopanaxadiol (PPD), protopanaxatriol (PPT), Rh2 and Rg3, were caused to react the enzyme of the present disclosure.
The reaction mixture was incubated at 35° C. for 12 hours and the resulting products were analyzed by thin-layer chromatography (TLC) or high-performance liquid chromatography (HPLC).
The TLC analysis was performed using a mobile phase (acetone:methanol:DDW=65:35:10 vol/vol) and a 60F254 silica gel plate (Merck, Germany). The resolved product on the TLC plate was detected by spraying 10% (vol/vol) sulfuric acid (H2SO4) and heating at 110° C. for 5 minutes.
The HPLC analysis was performed using an ODS(2) C18 column (Phenomenex, USA). The condition of gradient application of water and acetonitrile was as follows: flow rate=1 mL/min, 0 minute, 68% water and 32% acetonitrile; 8 minutes, 35% water and 65% acetonitrile; 12 minutes, 0% water and 100% acetonitrile; 20 minutes, 0% water and 100% acetonitrile; 20.1 minutes, 68% water and 32% acetonitrile; and 28 minutes, 68% water and 32% acetonitrile.
The ginsenosides were detected by monitoring at a wavelength of 203 nm using a UV detector (Agilent, USA).
First, the recombinant PgUGT of Example 1, PgUGT71A1, was incubated with 9 different types of ginsenosides (PPD, Rh2, Rg3, C—K, F2, Rd, PPT, F1, and Rh1) in the presence of UDP-glucose.
In order to confirm the result again, 4 different types of ginsenosides (PPD, PPT, Rh2, and Rg3) were incubated with PgUGT71A1, and the products converted by the recombinant PgUGT71A1 were analyzed by TLC. The result is shown at the top of FIG. 2. The result was confirmed by comparing the locations of the migrating spots with those of PPD, PPT, Rh2, Rg3, C—K, F2, Rd, and F1 used as standard samples.

For the next experiment, the system named is PgUGT71A1 expression. Put plainly: Expression of PgUGT71A1 in ginseng leaves and roots after methyl jasmonate treatment (real-time PCR, NGS). The class given is in vivo, Panax ginseng. The settings on record: 200 μM MeJA sprayed onto leaves of 15-month-old ginseng daily for 5 days, sampled 6th day, FIGS. 3 and 4. As for the experimental part: Total RNA was isolated from the leaf or root of 15-month-old ginseng using the Spectrum Plant Total RNA kit (Sigma-Aldrich). 200 μM methyl jasmonate (MeJA) was sprayed onto the leaves of ginseng every day for a total of 5 days and samples were collected on the 6th day. 1 μg of the total RNA was used for cDNA synthesis.
The expression level of different genes was examined by quantitative RT-PCR using the primer sets listed in Table 1, and the result was normalized to the expression level of tubulin.
RNA was extracted from the leaf and root of ginseng which had been treated and not treated with MeJA, and a cDNA library was constructed from 1 μg of the total RNA using the TruSeq RNA library kit. Following polyA-selected RNA extraction, RNA fragmentation and random hexamer-primed reverse transcription, 100 nt paired-end sequencing was conducted using Illumina HiSeq2000.
The resulting sequences were subjected to de novo transcriptome assembly using the Trinity (2011-11-26 version) program. The produced contigs (transcripts) were analyzed using Blast (version 2.2.25+). The GO database (released on 20-04-2012) and the NR database of NCBI (download date: 2012/05/07) were used. […] The expression level was expressed as fragments per kilobase of exon per million fragments mapped (FPKM) with a program released by the Trinity group using the RSEM algorithm. […]
In general terms: Quantitative PCR measures a nucleic acid by following its amplification.

In the case of `CC(C)=CCCC(C)(O)[C@H]1CC[C@]2(C)[C@@H]1[C@H](O)C[C@@H]1[C@@]3(C)CC[C@H](O)C(C)(C)[C@@H]3CC[C@]12C` (stereo in doubt) [PPD, protopanaxadiol], in the experiment with PgUGT71A1, the “conversion by PgUGT71A1 (product formed), HPLC” value (from here on “conversion by PgUGT71A1 … HPLC”) is given as “converted PPD to C—K”; the “conversion by PgUGT71A1 (product formed), TLC” value (from here on “conversion by PgUGT71A1 … TLC”) is reported as “converted PPD to compound K (C—K)”; the “reaction with PgUGT71A1 confirmed by thin-layer chromatography” value (“reaction with PgUGT71A1 confirmed” for short) is “reaction occurred”.
On to `CC(C)=CCC[C@](C)(O)[C@H]1CC[C@]2(C)[C@@H]1[C@H](O)C[C@@H]1[C@@]3(C)CC[C@H](O[C@@H]4O[C@H](CO)[C@@H](O)[C@H](O)[C@H]4O)C(C)(C)[C@@H]3CC[C@]12C` [Rh2], for which, in the experiment with PgUGT71A1, the “conversion by PgUGT71A1 … HPLC” value is “Rh2 to F2”; the “conversion by PgUGT71A1 … TLC” value was “Rh2 to F2”; the “reaction with PgUGT71A1 confirmed” value is on record as “reaction occurred”.
As for `CC/C=C\CC1C(=O)CCC1CC(=O)OC` (stereo not shown) [MeJA, methyl jasmonate], the “expression of PgUGT71A1 after MeJA treatment” value with PgUGT71A1 expression was “significantly enhanced”.
On to `CC(C)=CCC[C@](C)(O)[C@H]1CC[C@]2(C)[C@@H]1[C@H](O)C[C@@H]1[C@@]3(C)CC[C@H](O)C(C)(C)[C@@H]3[C@@H](O)C[C@]12C` [PPT, protopanaxatriol], for which, in the experiment with PgUGT71A1, the “conversion by PgUGT71A1 … HPLC” value was “PPT to F1”; the “conversion by PgUGT71A1 … TLC” value is reported as “PPT to F1”; the “reaction with PgUGT71A1 confirmed” value was “reaction occurred”.
Consider `CC(C)=CCC[C@](C)(O)[C@H]1CC[C@]2(C)[C@@H]1[C@H](O)C[C@@H]1[C@@]3(C)CC[C@H](O[C@@H]4O[C@H](CO)[C@@H](O)[C@H](O)[C@H]4O[C@@H]4O[C@H](CO)[C@@H](O)[C@H](O)[C@H]4O)C(C)(C)[C@@H]3CC[C@]12C` [Rg3], for which, in the experiment on PgUGT71A1, the “conversion by PgUGT71A1 … HPLC” value is reported as “Rg3 to Rd”; the “conversion by PgUGT71A1 … TLC” value was “Rg3 to Rd”; the “reaction with PgUGT71A1 confirmed” value was “reaction occurred”.
